Where a SMILES comes first, the peptide text is derived from it. [ ]: non-standard residue; d: D form. The star is where a group is joined. Trp(5-OH) = N[C@@H](Cc1c[nH]c2ccc(O)cc12)C(=O)O; dTrp(5-OH) = N[C@H](Cc1c[nH]c2ccc(O)cc12)C(=O)O; Phe(3-Br) = N[C@@H](Cc1cccc(Br)c1)C(=O)O; dNMeW = CN[C@H](Cc1c[nH]c2ccccc12)C(=O)O; Fmoc = O=C(OCC1c2ccccc2-c2ccccc21)*; Ahp(2) = CCCCC[C@H](N)C(=O)O; Nle = CCCC[C@H](N)C(=O)O
Experiments:
[1] = biological target: T1, CCK-B receptors (CHO-CCK) (Homo sapiens, UniProt P32239); assay: Calcium flux (Fluo-8) agonist test on CHO-CCK model cells; assay type: cell-based; settings: CHO-CCK cells, Fluo-8 calcium flux
T1 construct: expressed in transfected cells; host or cells: CHO (CHO-CCK model cells)
T1 sequence (P32239 1-447): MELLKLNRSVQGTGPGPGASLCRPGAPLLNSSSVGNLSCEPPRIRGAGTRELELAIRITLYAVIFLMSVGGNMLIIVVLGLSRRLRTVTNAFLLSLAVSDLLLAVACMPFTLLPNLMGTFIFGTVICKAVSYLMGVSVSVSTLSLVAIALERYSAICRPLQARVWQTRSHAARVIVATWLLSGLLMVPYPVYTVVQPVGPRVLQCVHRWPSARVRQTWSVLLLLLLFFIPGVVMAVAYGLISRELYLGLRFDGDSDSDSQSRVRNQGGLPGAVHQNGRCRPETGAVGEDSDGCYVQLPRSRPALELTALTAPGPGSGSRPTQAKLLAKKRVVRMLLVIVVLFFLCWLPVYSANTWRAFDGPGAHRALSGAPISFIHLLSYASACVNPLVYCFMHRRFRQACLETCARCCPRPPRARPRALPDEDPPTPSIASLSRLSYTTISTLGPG
In short: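 Agonist-mode Fluo-8 calcium flux read on CHO-CCK cells after dye loading 30 min at 37 °C plus 30 min at room temperature.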

[2] = biological target: T1, CCK-B receptors (CHO-CCK); assay: Calcium flux (Fluo-8) antagonist test on CHO-CCK model cells in presence of CCK8; assay type: cell-based
[3] = in presence of 10 nM CCK8, bound in μM

Row | SMILES | EC50 ([1]; 100% control = 20 nM CCK8) | EC50 ([2]; in presence of 10 nM CCK8) | EC50 ([1]; bound in μM) | EC50 [2, 3]
1 | CCCC[C@H](NC(=O)[C@@H](Cc1cn(C)c2ccccc12)NC(C)=O)C(=O)N[C@@H](CC(=O)O)C(=O)N[C@@H](Cc1cn(C)c2ccccc12)C(N)=O [HT-232, Ac-(1-Me-Trp)-Nle-Asp-(1-Me-Trp)-NH2] | 0.376 µM | 3.28 µM | – | –
2 | CCCC[C@H](NC(=O)[C@@H](Cc1cn(C)c2ccccc12)NC(C)=O)C(=O)N[C@@H](CC(=O)O)C(=O)N[C@@H](Cc1c(C)[nH]c2ccccc12)C(N)=O [HT-233, Ac-(1-Me-Trp)-Nle-Asp-(2-Me-Trp)-NH2] | – | 3.65 µM | > 10 µM | –
3 | CCCC[C@H](NC(=O)[C@@H](Cc1cccc(Br)c1)NC(C)=O)C(=O)N[C@@H](CC(=O)O)C(=O)N[C@@H](Cc1cccc(Br)c1)C(N)=O [HT-236, Ac-Phe(3-Br)-Nle-Asp-Phe(3-Br)-NH2] | 0.0977 µM | 0.357 µM | – | –
4 | CCCC[C@H](NC(=O)[C@@H](Cc1cccc(Br)c1)NC(C)=O)C(=O)N[C@@H](CCC(=O)O)C(=O)N[C@@H](Cc1cccc(Br)c1)C(N)=O [HT-237, Ac-Phe(3-Br)-Nle-Glu-Phe(3-Br)-NH2] | – | – | > 10 µM | > 10 µM
5 | CCCC[C@H](NC(=O)[C@H](Cc1c[nH]c2ccccc12)NC(C)=O)C(=O)N[C@@H](CCC(=O)O)C(=O)N[C@@H](Cc1cccc(Br)c1)C(N)=O [HT-238, Ac-D-Trp-Nle-Glu-Phe(3-Br)-NH2] | 0.0344 µM | 28.2 µM | – | –
6 | CCCC[C@H](NC(=O)[C@@H](Cc1c[nH]c2ccc(O)cc12)NC(C)=O)C(=O)N[C@@H](CCC(=O)O)C(=O)N[C@@H](Cc1cccc(Br)c1)C(N)=O [HT-240, Ac-(5-HTP)-Nle-Glu-Phe(3-Br)-NH2] (Ac-[dTrp(5-OH)][Nle]E[Phe(3-Br)]-NH2) | 0.527 µM | – | – | > 10 µM
7 | CCCC[C@H](NC(=O)[C@H](Cc1c[nH]c2ccccc12)NC(C)=O)C(=O)N[C@@H](CCC(=O)O)C(=O)N[C@@H](Cc1cn(C)c2ccccc12)C(N)=O [HT-241, Ac-D-Trp-Nle-Glu-(1-Me-Trp)-NH2] | 3.55 µM | – | – | > 10 µM
8 | CCCC[C@H](NC(=O)[C@@H](Cc1cn(C)c2ccccc12)NC(C)=O)C(=O)N[C@@H](CCC(=O)O)C(=O)N[C@@H](Cc1cccc(Br)c1)C(N)=O [HT-243, Ac-(1-Me-Trp)-Nle-Glu-Phe(3-Br)-NH2] | 0.44 µM | 1.41 µM | – | –
9 | CCCC[C@H](NC(=O)[C@@H](Cc1cn(C)c2ccccc12)NC(C)=O)C(=O)N[C@@H](CCC(=O)O)C(=O)N[C@@H](Cc1cn(C)c2ccccc12)C(N)=O [HT-245, Ac-(1-Me-Trp)-Nle-Glu-(1-Me-Trp)-NH2] | – | 1.76 µM | > 10 µM | –
10 | CCCC[C@H](NC(=O)[C@@H](Cc1cn(C)c2ccccc12)NC(C)=O)C(=O)N[C@@H](CCC(=O)O)C(=O)N[C@@H](Cc1c(C)[nH]c2ccccc12)C(N)=O [HT-246, Ac-(1-Me-Trp)-Nle-Glu-(2-Me-Trp)-NH2] | – | 2.13 µM | > 10 µM | –
11 | CCCC[C@H](NC(=O)[C@@H](Cc1c(C)[nH]c2ccccc12)NC(C)=O)C(=O)N[C@@H](CCC(=O)O)C(=O)N[C@@H](Cc1c(C)[nH]c2ccccc12)C(N)=O [HT-248, Ac-(2-Me-Trp)-Nle-Glu-(2-Me-Trp)-NH2] | 0.0331 µM | 0.47 µM | – | –
12 | CCCC[C@H](NC(=O)[C@@H](Cc1c[nH]c2ccccc12)N(C)C(=O)OCC1c2ccccc2-c2ccccc21)C(=O)N[C@@H](CC(=O)O)C(=O)N[C@@H](Cc1cccc(Br)c1)C(N)=O [HT-249, Fmoc-(N-Me-D-Trp)-Nle-Asp-Phe(3-Br)-NH2] (Fmoc-[dNMeW][Nle]D[Phe(3-Br)]-NH2) | 0.00226 µM | 4.55 µM | – | –
13 | CCCC[C@H](NC(=O)[C@@H](Cc1c[nH]c2ccccc12)N(C)C(=O)CNC(=O)OCC1c2ccccc2-c2ccccc21)C(=O)N[C@@H](CC(=O)O)C(=O)N[C@@H](Cc1cccc(Br)c1)C(N)=O [HT-251, Fmoc-Gly-(N-Me-Trp)-Nle-Asp Phe(3-Br)-NH2] | 0.00592 µM | 1.61 µM | – | –
14 | CCCC[C@H](NC(=O)[C@@H](Cc1c[nH]c2ccccc12)N(C)C(=O)OCC1c2ccccc2-c2ccccc21)C(=O)N[C@@H](CC(=O)OC)C(=O)N[C@@H](Cc1cccc(Br)c1)C(N)=O [HT-253, Fmoc-(N-Me-Trp)-Nle-Asp(O-Me)-Phe(3-Br)-NH2] (Fmoc-[dNMeW][Nle]D(OMe)[Phe(3-Br)]-NH2) | 0.744 µM | 1.92 µM | – | –

The remaining lines, values ahead:

Row | EC50 ([1]; 100% control = 20 nM CCK8) | EC50 ([2]; in presence of 10 nM CCK8) | EC50 ([1]; bound in μM) | EC50 [2, 3] | SMILES
15 | 0.252 µM | 1.43 µM | – | – | CCCC[C@H](NC(=O)[C@@H](Cc1c(C)[nH]c2ccccc12)NC(C)=O)C(=O)N[C@@H](CC(=O)O)C(=O)N[C@@H](Cc1cccc(Br)c1)C(N)=O [HT-231, Ac-(2-Me-Trp)-Nle-Asp-Phe(3-Br)-NH2]
16 | 5.46 µM | 4 µM | – | – | CCCC[C@H](NC(=O)[C@@H](Cc1c(C)[nH]c2ccccc12)NC(C)=O)C(=O)N[C@@H](CC(=O)O)C(=O)N[C@@H](Cc1cn(C)c2ccccc12)C(N)=O [HT-234, Ac-(2-Me-Trp)-Nle-Asp-(1-Me-Trp)-NH2]
17 | – | – | > 10 µM | > 10 µM | CCCC[C@H](NC(=O)[C@@H](Cc1c(C)[nH]c2ccccc12)NC(C)=O)C(=O)N[C@@H](CC(=O)O)C(=O)N[C@@H](Cc1c(C)[nH]c2ccccc12)C(N)=O [HT-235, Ac-(2-Me-Trp)-Nle-Asp-(2-Me-Trp)-NH2]
18 | – | – | > 10 µM | > 10 µM | CCCC[C@H](NC(=O)[C@H](Cc1c[nH]c2ccccc12)NC(C)=O)C(=O)N[C@@H](CCC(=O)O)C(=O)N[C@@H](Cc1c[nH]c2ccc(O)cc12)C(N)=O [HT-239, Ac-D-Trp-Nle-Glu-(5-HTP)-NH2] (Ac-W[Nle]E[Trp(5-OH)]-NH2)
19 | – | 1.31 µM | > 10 µM | – | CCCC[C@H](NC(=O)[C@H](Cc1c[nH]c2ccccc12)NC(C)=O)C(=O)N[C@@H](CCC(=O)O)C(=O)N[C@@H](Cc1c(C)[nH]c2ccccc12)C(N)=O [HT-242, Ac-D-Trp-Nle-Glu-(2-Me-Trp)-NH2]
20 | 7.32 µM | 1.36 µM | – | – | CCCC[C@H](NC(=O)[C@@H](Cc1c(C)[nH]c2ccccc12)NC(C)=O)C(=O)N[C@@H](CCC(=O)O)C(=O)N[C@@H](Cc1cccc(Br)c1)C(N)=O [HT-244, Ac-(2-Me-Trp)-Nle-Glu-Phe(3-Br)-NH2]
21 | 1.9 µM | 0.62 µM | – | – | CCCC[C@H](NC(=O)[C@@H](Cc1c(C)[nH]c2ccccc12)NC(C)=O)C(=O)N[C@@H](CCC(=O)O)C(=O)N[C@@H](Cc1cn(C)c2ccccc12)C(N)=O [HT-247, Ac-(2-Me-Trp)-Nle-Glu-(1-Me-Trp)-NH2]
22 | 0.386 µM | 2.85 µM | – | – | CCCC[C@H](NC(=O)[C@H](Cc1c[nH]c2ccccc12)N(C)C(=O)CNC(=O)OCC1c2ccccc2-c2ccccc21)C(=O)N[C@@H](CC(=O)O)C(=O)N[C@@H](Cc1cccc(Br)c1)C(N)=O [HT-250, Fmoc-Gly-(N-Me-D-Trp)-Nle-Asp-Phe(3-Br)-NH2]
23 | 0.255 µM | 1.03 µM | – | – | CCCC[C@H](NC(=O)[C@@H](Cc1c[nH]c2ccccc12)N(C)C(=O)CN(C)C(=O)OCC1c2ccccc2-c2ccccc21)C(=O)N[C@@H](CC(=O)O)C(=O)N[C@@H](Cc1cccc(Br)c1)C(N)=O [HT-252, Fmoc-(N-Me-Gly)-(N-Me-Trp)-Nle-Asp-Phe(3-Br)-NH2]
24 | 0.0226 µM | 1.04 µM | – | – | CCCCC[C@H](NC(=O)[C@@H](Cc1c[nH]c2ccccc12)N(C)C(=O)OCC1c2ccccc2-c2ccccc21)C(=O)N[C@@H](CC(=O)OC)C(=O)N[C@@H](Cc1cccc(Br)c1)C(N)=O [HT-254, Fmoc-(N-Me-Trp)-Pa-Asp(O-Me)-Phe(3-Br)-NH2] (Fmoc-[dNMeW][Ahp(2)]D(OMe)[Phe(3-Br)]-NH2)

— patent US20240415918A1, “Polypeptide and its use as a CCK receptor agonist/antagonist” (Centre for Regenerative Medicine & Health, Hong Kong …, priority 2021, published 2024)
